We go through three compounds from US8246999B2, “Capped mesoporous silicates” (Iowa State University Research Foundation, Inc., priority 2003, dated 2012).

Series [1] can be described thus: DTT-induced drug/neurotransmitter release study from CdS-capped MSN (HPLC). Particulars: for amount released / portion of encapsulated molecules released: after 3 days of DTT-induced uncapping; for release as share of the total release seen in 3 days: within 24 hours after introduction of 18.5 mM DTT. The series is classed as physicochemical. The method, then: CdS-capped MSN with vancomycin or ATP (10.00 mg) material was dispersed in 1.50 mL of PBS buffer (pH 7.4), followed by repeating wash/sonication/centrifugation cycles for five times to remove physisorbed, uncapped vancomycin or ATP molecules on the exterior surface of the material. The purified MSN/drug composite was redispersed in 3.50 mL of PBS buffer (pH 7.4). Aliquots were taken every 4 hours over a time period of 12 hours from the MSN/water suspension and injected to an analytical HPLC system (Hitachi LC/3DQMS with a reverse phase C18 column (Vydac), 0.4 cm×25 cm) to monitor the leaching of the mesoporous channel encapsulated vancomycin or ATP molecules. After 12 hours, dithiothreitol (DTT, 18.50 mM) was added to the suspension to cleave the disulfide linkage between the CdS nanoparticle and the MSN. The kinetic profiles of the DTT-induced release of vancomycin and ATP were monitored by following two literature-reported HPLC separation conditions. The peaks/areas at 280 and 258 nm were monitored/integrated for the quantitative analysis of amounts of released vancomycin and ATP, respectively. See Farin, D., et al., J. Pharm. Biomed. Anal. 1998, 18, 367-372; and Veciana-Nogues, M. T., et al., Food Chem. 1997, 59, 467-472.

A further series concerns astrocytes. The series is classed as cell-based, rat. The method, then: • (i) Wistar rats, raised at Iowa State University, were used for these experiments. Animal care and experimental protocols were in accordance with the guidelines and approval of the Iowa State University Committee on Animal Care. • (ii) Cell Cultures. Enriched primary astrocyte cultures from neonatal (P0 to P3) rat cerebral cortex were prepared as previously described by Jeremic, A., et al., J. Neurochem. 2001, 77, 664-675. Briefly, freshly dissected cortical tissues from three animals were incubated 50 minutes at 37° C. in 2.00 mL of Earle's balanced salt solution (EBSS; Gibco-Invitrogen Co.) containing papain (1.54 mg/mL; Sigma-Aldrich Co.). After incubation, tissue was rinsed with EBSS solution and incubated for 5 minutes in trypsin-inhibitor solution (1 mg/mL; Gibco-Invitrogen Co.). After being rinsed, once with EBSS solution and once with culture medium (consisting of α-minimum essential medium (α-MEM; Gibco-Invitrogen Co.) supplemented with 10% heat-inactivated fetal bovine serum (FBS; Gibco-Invitrogen Co.) and 1.00 mL of penicillin-streptomycin solution (Sigma-Aldrich Co.) per 100 mL), the tissue was mechanically dispersed in culture medium by triturating through a fire-polished glass pipet. The cell suspension was transferred to sterile 15-mL centrifuge tubes and spun at 1000 g for 10 minutes. Cell pellets were resuspended in culture medium (α-MEM supplemented with 10% heat-inactivated FBS and 1.00 mL of penicillin-streptomycin solution per 100.00 mL) and plated in culture flasks. Cells were maintained at 37° C. in a humidified 5% CO2/95% air atmosphere. Culture medium was changed every 2 to 3 days. When mixed cultures reached confluence (9-12 days), the flasks were shaken (260 rpm) for 90 minutes to remove microglia and dividing type I astroglia. After shaking the cells, medium was replaced, and the flasks were incubated for 1 hour to equilibrate with CO2 in the fresh medium. Cultures were then shaken overnight (12-18 hours) at 260 rpm at 37° C. Cultures enriched in type I astroglia were obtained by trypsinizing (0.25%; Sigma-Aldrich Co.) attached cells for 5 minutes. […]

Series [2] can be described thus: Loading of vancomycin and ATP into linker-MSN and capping with CdS (HPLC of filtrate). It is filed as physicochemical. The settings on record: for amount of mesopore-encapsulated molecule per 100.0 mg of linker-MSN material: CdS-capped MSN, calculated from concentration decrease in filtrate, HPLC; for loading efficiency: CdS-capped linker-MSN. How it is done:
Purified linker-MSN material from sub-part (b) below (100.00 mg) was incubated in a PBS buffer solution (0.60 mL, pH 7.4) of ATP or vancomycin (3.00 μmol in both cases) for 24 hours. Mercaptoacetic acid-functionalized CdS nanoparticles from sub-part (c) below (0.15 mmol) were dissolved in 2.00 mL of PBS buffer with vancomycin or ATP (0.01 mmol in both cases); 1-[3-(dimethylamino)propyl]-3-ethylcarbodiimide hydrochloride (EDC) (57.50 mg, 0.30 mmol) was added to the CdS/drug solution. The reaction mixture was allowed to stir for 24 hours, followed by centrifuging the suspension at 12 000 rpm for 3 minutes. The resulting precipitates (ATP- or vancomycin-loaded, CdS-capped MSNs) were isolated and dried under vacuum.
The resulting reaction suspensions were centrifuged, and the CdS-capped MSN/drug composite materials along with the unreacted CdS nanoparticles were filtered. The concentrations of the free vancomycin and ATP molecules in the filtrate were then determined by HPLC. The calculated concentration decreases of solution vancomycin and ATP were attributed to the amounts of mesopore-encapsulated vancomycin (2.5 μmol) and ATP (4.7 μmol) per 100.0 mg of linker-MSN material. These numbers correspond to ca. 83.9 and 30.3 mol % loading efficiency, respectively.

The conditions of series [3]: literature reports; cited from earlier work.

Entries after “also recorded” stand apart in the source; their conditions may differ. Structures can show the parent of a compound that is named as a salt.

Regarding `Nc1ncnc2c1ncn2[C@@H]1O[C@H](COP(=O)([O-])OP(=O)([O-])OP(=O)(O)O)[C@@H](O)[C@H]1O.[Na+].[Na+]` [ATP, adenosine triphosphate disodium salt], in series [1], the amount released turned out to be 1.3 µmol, the “portion of encapsulated molecules released” value is 28.2% and the “release as share of the total release seen in 3 days” value was found to be 85%. The “[Ca^2+]i response of astrocytes to ATP” value with astrocytes (100.0 μM ATP perfusion, no MSNs, ME-treated astrocytes, triphosphate disodium salt) is “obvious increases in [Ca^2+]i”. The “[Ca^2+]i response of astrocytes to ATP in presence of empty capped MSNs” value in the series on astrocytes (100.0 μM ATP perfusion, CdS-capped MSNs without ATP encapsulation present, triphosphate disodium salt) was “[Ca^2+]i increased; also recorded: An increase in [Ca^2+]i”. In series [2], the “amount of mesopore-encapsulated molecule per 100.0 mg of linker-MSN material” value was 4.7 µmol and the loading efficiency was about 30.3 mol %.

As to `OCCS` [ME], the “[Ca^2+]i response of astrocytes to ME” value in the series with astrocytes (ME 1.0 mM for 5 minutes, without MSNs) is “no increase in [Ca^2+]; also recorded: failed to produce any [Ca^2+]i response”.

On to `CN[C@H](CC(C)C)C(=O)N[C@H]1C(=O)N[C@@H](CC(N)=O)C(=O)N[C@H]2C(=O)N[C@H]3C(=O)N[C@H](C(=O)N[C@H](C(=O)O)c4cc(O)cc(O)c4-c4cc3ccc4O)[C@H](O)c3ccc(c(Cl)c3)Oc3cc2cc(c3O[C@@H]2O[C@H](CO)[C@@H](O)[C@H](O)[C@H]2O[C@H]2C[C@](C)(N)[C@H](O)[C@H](C)O2)Oc2ccc(cc2Cl)[C@H]1O` [vancomycin, Vancomycin hydrochloride], for which, in series [1], the amount released is 1.6 µmol, the “portion of encapsulated molecules released” value is listed as 53.8% and the “release as share of the total release seen in 3 days” value is reported as 85%. For the same compound, in series [3], the “isoelectric point (pI)” value is given as 8.3. In series [2], the “amount of mesopore-encapsulated molecule per 100.0 mg of linker-MSN material” value is 2.5 µmol and the loading efficiency entry is listed as “ca. 83.9 mol %”.
